Experimental data taken from patent US20250092013A1, “PRODRUGS OF AXITINIB” (OCULAR THERAPEUTIX, INC., priority 2021, published 2025).
Values after ≈ are worked out from the molar mass of the structure shown.

Experiments:
[1] = Solubility testing in phosphate buffer saline pH 7.4 (HPLC with calibration curve); type: physicochemical
Method: Solubility testing was performed with the following test items and conditions: • Test items: axitinib (99.99% purity by HPLC); axitinib-N-succinoyloxymethyl prodrug (94.3% purity by HPLC); • Test media: phosphate buffer saline pH 7.4 • Incubation condition: 24 hour at 22° C. with continuous shaking • Test concentration: 1 mg/mL • Data analysis: Solubility of test item was determined by HPLC analysis with calibration curve

[2] = cited from earlier work

| Structure (SMILES) | solubility at 24 h ([1]; 22 °C, pH 7.4, aqueous buffer, thermodynamic from solid) [µg/mL] | literature reported solubility [2] | Solubility ([1]; phosphate buffer saline pH 7.4, 24 hour at 22° C. with continuous shaking, test concentration 1 mg/mL) [µg/mL] | solubility of the prodrug enhanced (fold vs axitinib) ([1]; relative to literature reported solubility of axitinib (about 0.2 mcg/mL)) [×] |
| --- | --- | --- | --- | --- |
| CNC(=O)c1ccccc1Sc1ccc2c(/C=C/c3ccccn3)n[nH]c2c1 [Axitinib, axitinib] | < 0.78 | about 0.2 mcg/mL | – | – |
| CNC(=O)c1ccccc1Sc1ccc2c(/C=C/c3ccccn3)nn(COC(=O)CCC(=O)O)c2c1 [N-Succinoyloxymethyl Prodrug, axitinib-N-succinoyloxymethyl] | – | – | 217.4 (≈ 421 µM) | ~1100 |
